23 compounds from patent US10933056B2, “3-(1H-pyrazol-4-yl)pyridine allosteric modulators of the M4 muscarinic acetylcholine receptor” (Merck Sharp & Dohme Corp., priority 2015, dated 2021) can be followed below.

The assay concerns the target T1, human M4 muscarinic acetylcholine receptor (Homo sapiens, UniProt P08173).
T1 construct: expressed in transfected cells; host or cells: CHO-K1
T1 sequence (P08173 1-479): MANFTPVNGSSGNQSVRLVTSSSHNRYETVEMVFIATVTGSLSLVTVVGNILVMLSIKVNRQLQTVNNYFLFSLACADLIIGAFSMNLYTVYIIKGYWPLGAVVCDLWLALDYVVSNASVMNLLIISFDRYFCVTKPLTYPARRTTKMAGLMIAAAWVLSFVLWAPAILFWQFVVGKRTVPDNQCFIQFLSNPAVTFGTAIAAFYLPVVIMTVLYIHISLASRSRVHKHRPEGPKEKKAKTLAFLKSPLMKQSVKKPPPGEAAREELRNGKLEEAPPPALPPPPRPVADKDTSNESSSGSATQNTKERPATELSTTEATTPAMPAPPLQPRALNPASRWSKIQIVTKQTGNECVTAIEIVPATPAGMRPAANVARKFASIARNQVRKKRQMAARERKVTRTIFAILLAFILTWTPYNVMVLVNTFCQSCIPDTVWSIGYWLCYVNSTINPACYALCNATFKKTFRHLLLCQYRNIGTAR
Put plainly: human FLIPR-based M4 PAM assay (calcium mobilization in CHO-K1 cells with human M4 receptor and Gαqi5). The note with it: inflection point of dose response curve, acetylcholine at 20% of maximum response, FLIPR Tetra, read-out: M4 PAM IP. The format is cell-based. Here is the method: (§1) In a typical experiment the M4 muscarinic acetylcholine receptor modulating activity of the compounds of the present invention was determined in accordance with the following experimental method. CHO-K1 cells stably transfected with human M4 receptor and chimeric G-protein Gαqi5 (Coward P, et al., Analytical Biochemistry, 270:242-248 (1999)) are thawed from liquid N2 storage, resuspended in growth medium, plated in black, clear bottom 384 well plates, and incubated 16-20 hours at 37° C., 5% CO2. On the day of assay, growth medium is removed, the cells are washed 2 times with wash buffer, and cells are incubated in dye loading buffer at 37° C., 5% CO2 for ˜1 hour. Following dye loading the cell plates are placed in a FLIPR Tetra instrument and while monitoring dye fluorescence (excitation […]), 10 uL of test substance at increasing concentrations is added, and fluorescence values are recorded for 4 min. Next, 10 uL of acetylcholine is added (final concentration calculated so as to achieve 20% of the maximum acetycholine response), and the fluorescence reading is continued for 3.5 min. In some cases, a third addition of acetylcholine (final concentration calculated to achieve 70% of the maximal acetylcholine response) is performed. The resulting dose response curves are fit to a 4 parameter logistic equation and the final result is determined as the inflection point (IP) of the curve
as §1, with “CHO-K1” for “In a typical experiment the M4 muscarinic acetylcholine receptor modulating activity of the compounds of the present invention was determined in accordance with the following experimental method. CHO-K1”, “Gαqi5” for “Gαqi5 (Coward P, et al., Analytical Biochemistry, 270:242-248 (1999))”, “performed.” for “performed. The resulting dose response curves are fit to a 4 parameter logistic equation and the final result is determined as the inflection point (IP) of the curve”
A general note: Calcium flux is commonly read through the fluorescence of an indicator in the cells.

With `CC1(Cn2cc(-c3cccnc3-c3ccc4c(c3)C(=O)N(C3CC3)C4)cn2)CCCC1` [Example 26, 2-cyclopropyl-6-(3-(1-((1-methylcyclopentyl)methyl)-1H-pyrazol-4-yl)pyridin-2-yl)isoindolin-1-one], the EC50 is 32 nM.
In the case of `Cc1ccc(-c2cnn(CC3(C)CCCC3)c2)c(-c2ccc3c(c2)C(=O)N(C)C3)n1` [Example 27, 2-methyl-6-(6-methyl-3-(1-((1-methylcyclopentyl)methyl)-1H-pyrazol-4-yl)pyridin-2-yl)isoindolin-1-one], the EC50 amounted to 11 nM.
The figure for `Cc1ccc(-c2cnn(CC3(C)CCCC3)c2)c(-c2ccc3c(c2)C(=O)N(C2CC2)C3)n1` [Example 28, 2-cyclopropyl-6-(6-methyl-3-(1-((1-methylcyclopentyl)methyl)-1H-pyrazol-4-yl)pyridin-2-yl)isoindolin-1-one] is 10 nM.
On to `CC1(Cn2cc(-c3c(F)ccnc3-c3ccc4c(c3)C(=O)N(CC3CC3)C4)cn2)CCCC1` [Example 29, 2-(cyclopropylmethyl)-6-(4-fluoro-3-(1-((1-methylcyclopentyl)methyl)-1H-pyrazol-4-yl)pyridin-2-yl)isoindolin-1-one], for which the EC50 was 13 nM.
As to `Cc1ccc(-c2cnn(CC3(C)CCCC3)c2F)c(-c2ccc3c(c2)C(=O)N(CC2CC2)C3)n1` [Example 30, 2-(cyclopropylmethyl)-6-(3-(5-fluoro-1-((1-methylcyclopentyl)methyl)-1H-pyrazol-4-yl)-6-methylpyridin-2-yl)isoindolin-1-one], the EC50 came out at 18 nM.
The figure for `CN1Cc2ccc(-c3nccc(C#N)c3-c3cnn(CC4(C)CCCC4)c3)cc2C1=O` [Example 31, 2-(2-methyl-3-oxoisoindolin-5-yl)-3-(1-((1-methylcyclopentyl)methyl)-1H-pyrazol-4-yl)isonicotinonitrile] is 74 nM.
The value for `CC1(Cn2cc(-c3ccc(C#N)nc3-c3ccc4c(c3)C(=O)N(CC3CC3)C4)cn2)CCCC1` [Example 32, 6-(2-(cyclopropylmethyl)-3-oxoisoindolin-5-yl)-5-(1-((1-methylcyclopentyl)methyl)-1H-pyrazol-4-yl)picolinonitrile] was 7 nM; that for `CC1(Cn2cc(-c3ccc(C#N)nc3-c3ccc4c(c3)C(=O)N(C3CC3)C4)cn2)CCCC1` [Example 33, 6-(2-cyclopropyl-3-oxoisoindolin-5-yl)-5-(1-((1-methylcyclopentyl)methyl)-1H-pyrazol-4-yl)picolinonitrile] was 7 nM.
With `CC1(Cn2cc(-c3ccc(C#N)nc3-c3ccc4c(c3)C(=O)NC4)cn2)CCCC1` [Example 34, 5-(1-((1-methylcyclopentyl)methyl)-1H-pyrazol-4-yl)-6-(3-oxoisoindolin-5-yl)picolinonitrile], the EC50 is 15 nM.
The value for `COC(=O)CN1Cc2ccc(-c3nc(C#N)ccc3-c3cnn(CC4(C)CCCC4)c3)cc2C1=O` [Example 34A, methyl 2-(6-(6-cyano-3-(1-((1-methylcyclopentyl)-methyl)-1H-pyrazol-4-yl)pyridin-2-yl)-1-oxoisoindolin-2-yl)acetate] was 44 nM; that for `CC1(Cn2cc(-c3ccc(F)nc3-c3ccc4c(c3)C(=O)N(C3CC3)C4)cn2)CCCC1` [Example 35, 2-cyclopropyl-6-(6-fluoro-3-(1-((1-methylcyclopentyl)methyl)-1H-pyrazol-4-yl)pyridin-2-yl)isoindolin-1-one] was 9 nM.
The figure for `CN1Cc2ccc(-c3nc(F)ccc3-c3cnn(CC4(C)CCCC4)c3)cc2C1=O` [Example 36, 6-(6-fluoro-3-(1-((1-methylcyclopentyl)methyl)-1H-pyrazol-4-yl)pyridin-2-yl)-2-methylisoindolin-1-one] is 6 nM.
The value for `CC1(Cn2cc(-c3ccc(F)nc3-c3ccc4c(c3)C(=O)NC4)cn2)CCCC1` [Example 37, 6-(6-fluoro-3-(1-((1-methylcyclopentyl)methyl)-1H-pyrazol-4-yl)pyridin-2-yl)isoindolin-1-one] was 7 nM.
Regarding `Cc1cc(-c2cnn(CC3(C)CCCC3)c2)c(-c2ccc3c(c2)C(=O)N(C)C3)nc1Cl` [Example 38, 6-(6-chloro-5-methyl-3-(1-((1-methylcyclopentyl)methyl)-1H-pyrazol-4-yl)pyridin-2-yl)-2-methylisoindolin-1-one], the EC50 came to 33 nM.
The value for `CN1Cc2ccc(-c3nc4c(cc3-c3cnn(CC5(C)CCCC5)c3)CCC4)cc2C1=O` [Example 39, 2-methyl-6-(3-(1-((1-methylcyclopentyl)methyl)-1H-pyrazol-4-yl)-6,7-dihydro-5H-cyclopenta[b]pyridin-2-yl)isoindolin-1-one] was 37 nM; that for `CC1(Cn2cc(-c3cc4c(nc3-c3cnc5c(c3)C(=O)NC5)[C@H](F)CC4)cn2)CCCC1` [Example 39A, (R)-3-(7-fluoro-3-(1-((1-methylcyclopentyl)methyl)-1H-pyrazol-4-yl)-6,7-dihydro-5H-cyclopenta[b]pyridin-2-yl)-6,7-dihydro-5H-pyrrolo[3,4-b]pyridin-5-one] was 58 nM; that for `CC1(Cn2cc(-c3cc4c(nc3-c3cnc5c(c3)C(=O)NC5)[C@@H](F)CC4)cn2)CCCC1` [Example 39B, (S)-3-(7-fluoro-3-(1-((1-methylcyclopentyl)methyl)-1H-pyrazol-4-yl)-6,7-dihydro-5H-cyclopenta[b]pyridin-2-yl)-6,7-dihydro-5H-pyrrolo[3,4-b]pyridin-5-one] was 25 nM.
The value for `Cc1cc(-c2cnn(CC3(C)CCCC3)c2)c(-c2ccc3c(c2)C(=O)NC3)nc1Cl` [Example 40, 6-(6-chloro-5-methyl-3-(1-((1-methylcyclopentyl)methyl)-1H-pyrazol-4-yl)pyridin-2-yl)isoindolin-1-one] was 49 nM.
On to `CN1Cc2ccc(-c3nc(CO)c(F)cc3-c3cnn(CC4(C)CCCC4)c3)cc2C1=O` [Example 41, 6-(5-fluoro-6-(hydroxymethyl)-3-(1-((1-methylcyclopentyl)methyl)-1H-pyrazol-4-yl)pyridin-2-yl)-2-methylisoindolin-1-one], for which the EC50 came out at 64 nM.
Take `CC1(Cn2cc(-c3ccc(C#N)nc3-c3ccc4c(c3)C(=O)N(CCF)C4)cn2)CCCC1` [Example 42, 6-(2-(2-fluoroethyl)-3-oxoisoindolin-5-yl)-5-(1-((1-methylcyclopentyl)methyl)-1H-pyrazol-4-yl)picolinonitrile]: the EC50 is 37 nM.
The value for `CN1Cc2ccc(-c3nc(C#N)ccc3-c3cnn(CC4(C)CCCC4)c3F)cc2C1=O` [Example 43, 5-(5-fluoro-1-((1-methylcyclopentyl)methyl)-1H-pyrazol-4-yl)-6-(2-methyl-3-oxoisoindolin-5-yl)picolinonitrile] was 20 nM; that for `CC1(Cn2ncc(-c3ccc(C#N)nc3-c3ccc4c(c3)C(=O)NC4)c2F)CCCC1` [Example 43A, 5-(5-fluoro-1-((1-methylcyclopentyl)methyl)-1H-pyrazol-4-yl)-6-(3-oxoisoindolin-5-yl)picolinonitrile] was 26 nM.
The figure for `CC1(Cn2ncc(-c3ccc(C#N)nc3-c3ccc4c(c3)C(=O)N(C3CC3)C4)c2F)CCCC1` [Example 44, 6-(2-cyclopropyl-3-oxoisoindolin-5-yl)-5-(5-fluoro-1-((1-methylcyclopentyl)methyl)-1H-pyrazol-4-yl)picolinonitrile] is 54 nM.
